Test results reported in patent publication US6987105B2, “Synthesis and use of thienotriazolodiazepines” (Board of Supervisors of Louisiana State University And …, priority 2000, dated 2006).

How the values were obtained:
[1] = system: angiogenesis in the mouse cornea; experiment: mouse corneal micropocket assay (PAF-induced angiogenesis); format: in vivo, mice
Source text: The mouse corneal micropocket assay according to the procedure of B. M. Kenyon et al., “A model of angiogenesis in the mouse cornea,” Invest. Ophthalmol. Vis. Sci. vol. 37, pp. 1625-1632 (1996), was used to test whether LAU-8080 would inhibit angiogenesis.
Mouse corneal micropocket assay: Corneal micropockets were created with a modified von Graefe knife in both eyes of 5- to 6-weeks old mice. Pellets containing vehicle of 0.1% BSA in PBS with 12% polyhydroxyethylmetacrylate (Hydron) were implanted in the corneas at 1 mm from the limbus of the mice for a control. For the PAF experiment, 500 ng cPAF was added to the pellet with vehicle. For the PAF-LAU experiment, mice were implanted with Hydron pellets containing 0.1% BSA in PBS, 500 ng CPAF, and then treated with the PAF antagonist LAU-8080 (30 μg/g body weight), i.p., once a day. Six days later, corneal pictures were taken under the microscope and vessel length and clock hours of circumferential neovascularization were measured.

[2] = system: PAF binding site of the synaptosomal, plasma membrane; settings: cited from earlier work
[3] = system: middle cerebral artery occlusion and reperfusion; experiment: middle cerebral artery occlusion (MCAO) and reperfusion stroke model; format: in vivo, mice (C57BL/6)
Source text: To study the properties of LAU-8080 in an animal model of stroke, the technique of occluding the middle cerebral artery (middle cerebral artery occlusion, “MCAO”) which has been adapted to the mouse was used. The mouse middle cerebral artery occlusion is a well-recognized model of focal stroke as neuronal damage occurs when ischemia-reperfusion damages the brain. Adult male mice (C57BL/6) weighing 22-25 grams were induced to anesthesia with 1/70/30% halothane/nitrous oxide/oxygen, on a temperature controlled blanket. A line of PAF-R deficient mice (PAF receptor Knock-out mice), as described in S. Ishi et al., “Impaired anaphylactic responses with intact sensitivity to endotoxin in mice lacking a platelet-activating factor,” J. Exp. Med., vol. 187, pp. 1779-1788 (1998), was also used. The common carotid and external carotid arteries were exposed and dissected from surrounding tissue; the right external carotid artery was ligated. The right common carotid was temporarily occluded. A small arteriotomy to the external carotid artery was made so the occluding filament was introduced and advanced to the common carotid artery, and redirected into the internal carotid artery. The filament was advanced so that the blunted tip was placed in the anterior cerebral artery and the side of the filament occluded the origin of the middle cerebral artery. The common carotid artery was gently released, restoring blood flow to the carotid system. The wound was inspected for bleeding. All retracting sutures were removed, and the wound was closed. The anesthetic gases were stopped, and the animal was given oxygen until fully awake, then returned to his cage. After 60 minutes of occlusion, animals were reperfused by removal occluding filament. Animals were placed under anesthesia again, the occluding suture was delicately withdrawn from the arterial lumen, restoring blood flow to the territory of the middle cerebral artery. The wound was closed by interrupted silk sutures. The anesthetic gases were stopped, and the animal was given oxygen until fully awake.
The treated animals received a single i.p. injection of LAU-8080 (30 mg/kg) at 1 hour after reperfusion started, and control animals received vehicle injection (2-hydroxypropyl-β-cyclodextrin).
Scores were collected according Bederson's classification: a score of “0” indicates the animal moved freely changing directions. […]
(§1) Volumetric changes in infarcted brain regions in mice after 1 hour MCAO and 24-48 hours reperfusion was obtained by staining brain slices 1 mm thick with 2% 2,3,5-triphenyltetrazolium chloride (TTC). Quantitative analysis of the volume of the infarcted area was obtained by image-analysis.

[4] = system: PAF binding sites of microsomal membranes; settings: cited from earlier work
photoreceptor cells = experiment: light-induced retina damage model (bright light-treated photoreceptors); format: in vivo, Sprague-Dawley rats; settings: rat, 30 mg/kg i.p. pretreatment
Procedure: The light-induced retina damage model selectively promotes the killing of photoreceptor cells as it occurs in age-related macular degeneration and retinitis pigmentosa.
Sprague-Dawley rats (150-175 g males) were dark adapted for 3 days. Two hours before light treatment they were injected i.p. with LAU-8080 (30 mg/kg) suspended in a vehicle (cyclo-dextrin) or just vehicle. A third group received no injection. Rats were placed in 5 inch diameter cylindrical lucite tubes which were then placed within an 8-light array of 10 inch diameter fluorescent lights (40 Watt, G.E. cool white; 350 μE/m^2·s; 25 klux) for up to 5 hours. After 10 days in darkness, eyes were collected and prepared for histology. […] The profile of the photoreceptor nuclear layer of the light+vehicle, light+vehicle+LAU-8080, and dark rat retinas were compared. The percent cell loss under each condition was calculated against the dark animal controls.

[5] = system: middle cerebral artery occlusion and reperfusion; experiment: MCAO and reperfusion stroke model in PAF receptor Knock-out mice; format: in vivo, PAF-R deficient mice (PAF receptor Knock-out mice)
Source text: To study the properties of LAU-8080 in an animal model of stroke, the technique of occluding the middle cerebral artery (middle cerebral artery occlusion, “MCAO”) which has been adapted to the mouse was used. The mouse middle cerebral artery occlusion is a well-recognized model of focal stroke as neuronal damage occurs when ischemia-reperfusion damages the brain. Adult male mice (C57BL/6) weighing 22-25 grams were induced to anesthesia with 1/70/30% halothane/nitrous oxide/oxygen, on a temperature controlled blanket. A line of PAF-R deficient mice (PAF receptor Knock-out mice), as described in S. Ishi et al., “Impaired anaphylactic responses with intact sensitivity to endotoxin in mice lacking a platelet-activating factor,” J. Exp. Med., vol. 187, pp. 1779-1788 (1998), was also used. The common carotid and external carotid arteries were exposed and dissected from surrounding tissue; the right external carotid artery was ligated. The right common carotid was temporarily occluded. […]
as §1

| Molecule | angiogenesis (vessel length and clock hours) induced by pellet ([1]; pellet with 500 ng cPAF, 6 days after implantation, versus vehicle pellet) | displacement of PAF [2] | neurological scores (Bederson's classification) ([3]; 30 mg/kg i.p. 1 hour after reperfusion, noticeable 24 hours after reperfusion) | infarct volume ([3]; 1 hour MCAO and 48 hours reperfusion, injection 1 hour after reperfusion onset, p<0.0026) | survival ([3]; 1 hour MCAO, single i.p. 30 mg/kg 1 hour after onset of reperfusion, followed-up 14 days, n=20, p<0.04 vs vehicle) | effect of injection at different times during the procedure versus 1 hour after reperfusion ([3]; MCAO mice) | displacement of PAF [4] | cell loss in an area near the center of the photodamage region (photoreceptor cells) | depth of photoreceptor nuclear layer (photoreceptor cells) | angiogenesis (vessel length and clock hours of circumferential neovascularization) ([1]; 500 ng cPAF pellet, LAU-8080 30 μg/g body weight i.p. once a day, 6 days, p<0.05) | survival ([5]; PAF knock-out mice, injection one hour after reperfusion, p<0.0074) | infarct volume ([5]; PAF receptor Knock-out mice) |
| --- | --- | --- | --- | --- | --- | --- | --- | --- | --- | --- | --- | --- |
| 1-O-alkyl-2-acetyl-sn-glycero-3-phosphocholine [PAF, reference compound] | strongly induced |  |  |  |  |  |  |  |  |  |  |  |
| COc1ccc(NC(=S)N2CCc3c(sc4c3C(c3ccccc3Cl)=NCc3nnc(C)n3-4)C2)cc1 [LAU-8080, 6-(2-chlorophenyl)-9-[(4-methoxyphenyl)thiocarbamoyl]-1-methyl-7,8,9,10-tetrahydro-4H-pyrido[4′,3′:4,5]thieno[3,2-f]-1,2,4-triazolo[4,3-a]-1,4-diazepine] |  | not from the synaptosomal, plasma membrane | significative improvement | significant reduction | 35% | did not differ significantly | displace PAF from microsomal membranes | complete lack of cell loss | 12 cells deep | significantly reduced | significative protection | small reduction |
